Results taken from ChEMBL document CHEMBL4043149, “Beneficial effects of a medicinal herb, Cirsium japonicum var. maackii, extract and its major component, cirsimaritin on breast cancer metastasis in MDA-MB-231 breast cancer cells” (Bioorg Med Chem Lett, 2017).
Activity calls are given as the source filed them. The rule behind the calls is not given here.

Assays:
[1] = test system: HUVEC; experiment: Cytotoxicity against HUVEC assessed as reduction in cell viability at 100 uM after 24 hrs by MTT assay; assay type: cell-based; conditions: human
[2] = test system: HUVEC; experiment: Antiangiogenic activity in HUVEC assessed as inhibition of vascular endothelial tube formation at 6.25 uM after 24 hrs by matrigel assay relative to control; assay type: functional; conditions: Homo sapiens
[3] = test system: MDA-MB-231; experiment: Antimetastatic activity against human MDA-MB-231 cells assessed as cell viability at 3.125 uM after 24 hrs by MTT assay relative to control; assay type: functional; conditions: MDA-MB-231, 24 h, read-out: Activity
[4] = test system: HUVEC; experiment: Cytotoxicity against HUVEC assessed as reduction in cell viability at 12.50 to 100 uM after 24 hrs by MTT assay; assay type: cell-based; conditions: human
[5] = test system: MDA-MB-231; experiment: Decrease in MMP9 mRNA expression in human MDA-MB-231 cells at 3.125 to 6.25 uM after 24 hrs by RT-PCR method; assay type: functional, cell-based
[6] = test system: MDA-MB-231; experiment: Antimetastatic activity against human MDA-MB-231 cells assessed as reduction in cell viability at 200 uM after 24 hrs by MTT assay relative to control; assay type: functional
[7] = test system: MCF7; experiment: Antimetastatic activity against human MCF7 cells assessed as cell viability at 100 uM after 24 hrs by MTT assay relative to control; assay type: functional; conditions: MCF7, 24 h, read-out: Activity
[8] = test system: MDA-MB-231; experiment: Downregulation of VEGF protein expression in human MDA-MB-231 cells at 3.125 uM after 24 hrs by Western blot analysis relative to control; assay type: functional
[9] = test system: HUVEC; experiment: Cytotoxicity against HUVEC assessed as reduction in cell viability after 24 hrs by MTT assay; assay type: cell-based; conditions: human
[10] = test system: MDA-MB-231; experiment: Antimetastatic activity against human MDA-MB-231 cells assessed as reduction in cell viability at 100 uM after 24 hrs by MTT assay relative to control; assay type: functional
[11] = Cytotoxicity against HUVEC assessed as cell viability at 3.12 uM after 24 hrs by MTT assay; assay type: cell-based; conditions: human, HUVEC cells; read-out: Activity
[12] = test system: MCF7; experiment: Antimetastatic activity against human MCF7 cells assessed as cell viability at 3.125 uM after 24 hrs by MTT assay relative to control; assay type: functional; conditions: MCF7, 24 h, read-out: Activity
[13] = Cytotoxicity against HUVEC assessed as cell viability at 100 uM after 24 hrs by MTT assay; assay type: cell-based; conditions: human, HUVEC cells; read-out: Activity
[14] = test system: MDA-MB-231; experiment: Antimetastatic activity against human MDA-MB-231 cells assessed as reduction in cell viability at 50 uM after 24 hrs by MTT assay relative to control; assay type: functional
[15] = test system: MDA-MB-231; experiment: Antimetastatic activity against human MDA-MB-231 cells assessed as reduction in cell viability at <6.25 uM after 24 hrs by MTT assay; assay type: functional, cell-based
[16] = target: RAC-alpha serine/threonine-protein kinase (Homo sapiens) (UniProt P31749); experiment: Inhibition of Akt phosphorylation in human MDA-MB-231 cells at 6.25 uM after 24 hrs by Western blot analysis relative to control; assay type: cell-based
[17] = test system: MDA-MB-231; experiment: Antimetastatic activity against human MDA-MB-231 cells assessed as reduction in cell viability at 6.25 uM after 24 hrs by MTT assay relative to control; assay type: functional
[18] = test system: HUVEC; experiment: Antiangiogenic activity in HUVEC assessed as inhibition of vascular endothelial tube formation at 3.125 uM after 24 hrs by matrigel assay relative to control; assay type: functional; conditions: Homo sapiens
[19] = test system: HUVEC; experiment: Cytotoxicity against HUVEC assessed as reduction in cell viability up to 6.25 uM after 24 hrs by MTT assay; assay type: cell-based; conditions: human
[20] = species on record: Homo sapiens; experiment: Inhibition of ERK phosphorylation in human MDA-MB-231 cells at 6.25 uM after 24 hrs by Western blot analysis relative to control; assay type: cell-based
[21] = species on record: Homo sapiens; experiment: Inhibition of ERK phosphorylation in human MDA-MB-231 cells at 3.125 uM after 24 hrs by Western blot analysis relative to control; assay type: cell-based
[22] = species on record: Homo sapiens; experiment: Inhibition of ERK phosphorylation in human MDA-MB-231 cells at […] after 24 hrs by Western blot analysis relative to control; assay type: cell-based
[23] = test system: MDA-MB-231; experiment: Downregulation of VEGF protein expression in human MDA-MB-231 cells at 6.25 uM after 24 hrs by Western blot analysis relative to control; assay type: functional
[24] = target: RAC-alpha serine/threonine-protein kinase (Homo sapiens) (UniProt P31749); experiment: Inhibition of Akt phosphorylation in human MDA-MB-231 cells at 3.125 uM after 24 hrs by Western blot analysis relative to control; assay type: cell-based

RAC-alpha serine/threonine-protein kinase (Homo sapiens), sequence (P31749 whole entry): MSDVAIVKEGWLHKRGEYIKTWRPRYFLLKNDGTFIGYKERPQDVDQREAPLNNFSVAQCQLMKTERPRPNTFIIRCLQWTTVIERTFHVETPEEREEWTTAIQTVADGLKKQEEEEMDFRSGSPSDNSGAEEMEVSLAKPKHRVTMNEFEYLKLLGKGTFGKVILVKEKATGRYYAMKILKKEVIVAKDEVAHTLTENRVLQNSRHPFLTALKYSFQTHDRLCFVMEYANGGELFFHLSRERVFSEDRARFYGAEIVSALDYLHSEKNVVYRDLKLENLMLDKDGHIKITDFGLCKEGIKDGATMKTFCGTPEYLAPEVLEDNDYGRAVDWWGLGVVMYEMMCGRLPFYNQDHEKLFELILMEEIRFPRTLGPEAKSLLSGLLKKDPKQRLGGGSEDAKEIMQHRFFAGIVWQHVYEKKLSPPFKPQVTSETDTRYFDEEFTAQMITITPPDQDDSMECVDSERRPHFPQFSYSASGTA

## COc1cc2oc(-c3ccc(O)cc3)cc(=O)c2c(O)c1OC [CIRSIMARITIN]
[1]
  Activity: 62.04%
[2]
  inhibition at 6.25 µM: 32.2%
[3]
  viability at 3.125 µM: 88.2%
[4]
  Activity: Toxic
[5]
  Activity: Active
[6]
  Activity: 52.73%
[7]
  viability at 100 µM: 53.4%
[8]
  fold change (FC): 0.78
[9]
  Activity: Dose-dependent effect
[10]
  Activity: 38.56%
[11]
  viability at 24 h, 3.12 µM: 89.9%
[12]
  viability at 3.125 µM: 81.8%
[13]
  viability at 24 h, 100 µM: 38%
[14]
  Activity: 78.74%
[15]
  Activity: inactive
[16]
  fold change (FC): 0.66
[17]
  Activity: 83.19%
[18]
  inhibition at 3.125 µM: 18.1%
[19]
  Activity: Non-Toxic
[20]
  fold change (FC): 0.57
[21]
  fold change (FC): 0.8
[22]
  inhibition: 43%
[23]
  fold change (FC): 0.78
[24]
  fold change (FC): 0.68

## COc1cccc2c1C(=O)c1c(O)c3c(c(O)c1C2=O)C[C@@](O)(C(=O)CO)C[C@@H]3O[C@H]1C[C@H](N)[C@H](O)[C@H](C)O1 [DOXORUBICIN]
[11]
  viability at 24 h, 3.12 µM: 14.2%
[13]
  viability at 24 h, 100 µM: 11.7%
